Assay results reported in ChEMBL document CHEMBL1201862, “PubChem BioAssay data set” (2004).
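A five-concentration, 48-hour dose response in 96-well plates underlies each endpoint, interpolated linearly between surrounding concentrations. GI50: concentration for 50% inhibition of growth.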 Activity calls are given as the source filed them. Rule as the data show it: active = GI50 up to about 1.1 µM and inactive = higher.

Legend:
Test in all cases: NCI anticancer screen, dose series, 48 h
[1] = test system: EKVX
[2] = test system: HL-60
[3] = test system: BT-549
[4] = test system: MDA-N
[5] = test system: DMS-114
[6] = test system: RXF 393
[7] = test system: NCI-H460
[8] = test system: IGROV-1
[9] = test system: UACC-257
[10] = test system: A498
[11] = test system: OVCAR-3
[12] = test system: KM12
[13] = test system: SK-MEL-2
[14] = test system: SF-268
[15] = test system: OVCAR-8
[16] = test system: 786-0
[17] = test system: UACC-62
[18] = test system: OVCAR-4
[19] = test system: U-251
[20] = test system: TK-10

Measured: GI50

CC(C)Cc1ccc(C(C)/C=C2\CCC(CN3CCOCC3)C2=O)cc1 (stereo not given)
inactive: [1] 18 µM | [2] 2.69 µM | [3] 17.9 µM | [4] 12.1 µM | [5] 13.4 µM | [6] 8.43 µM | [7] 14.8 µM | [8] 7.71 µM | [9] 7.14 µM | [10] 12.5 µM | [11] 4.1 µM | [12] 5.47 µM | [13] 16.6 µM | [14] 6.87 µM | [15] 3.61 µM | [16] 1.69 µM | [17] 12.5 µM | [18] 17.7 µM | [19] 13.5 µM | [20] 5.82 µM
